We go through 26 molecules from ChEMBL document CHEMBL1128195, “A novel class of cyclic beta-dicarbonyl leaving groups and their use in the design of benzisothiazolone human leukocyte elastase inhibitors” (J Med Chem, 1995).

Data set [1] can be described thus: in vitro. The following applies: human, blood.
Data set [2] is described as follows: in vitro. The following applies: human, liver.
Description: Half life in human liver at 37 degree C

What is called half-life is the time needed for the level to fall by half in the phase considered. Higher therefore signals slow decline.

Each structure is given as a SMILES string.

As for `COc1cc(C(C)C)c2c(c1)S(=O)(=O)N(COc1cc(C)oc(=O)c1C(=O)c1ccccc1)C2=O`, the half-life in the data set “in vitro [1]” was less than 0.25 h.

Take `COc1cc(C(C)C)c2c(c1)S(=O)(=O)N(COC1=C(C)C(=O)CC1)C2=O`: the half-life in the data set “in vitro [1]” is less than 0.25 h.

In the data set “in vitro [1]”, `COc1cc(C(C)C)c2c(c1)S(=O)(=O)N(COC1=C(Cc3ccccc3)C(=O)CC1)C2=O` had a half-life of 0.917 h.

Molecule `COc1cc(C(C)C)c2c(c1)S(=O)(=O)N(COc1cc(=O)oc3ccccc13)C2=O` had a half-life in the data set “in vitro [1]” of 6 h. As to `COc1cc(C(C)C)c2c(c1)S(=O)(=O)N(COC1=C(c3ccccc3)C(=O)OC1C)C2=O` (configuration not stated), the values for the half-life in “in vitro [1]” and in the data set “in vitro [2]” were 2.57 h and 1.37 h, respectively. With `COc1cc(C(C)C)c2c(c1)S(=O)(=O)N(COc1nc3ccccn3c(=O)c1Br)C2=O`, the half-life in the data set “in vitro [1]” came to 2.07 h. In the case of `COc1cc(C(C)C)c2c(c1)S(=O)(=O)N(COc1cc(=O)n3ccccc3n1)C2=O`, the figures for the half-life in “in vitro [1]” and in the data set “in vitro [2]” were 1.78 h and 1.7 h, respectively.

In turn, `COc1cc(C(C)C)c2c(c1)S(=O)(=O)N(COc1cc(C)oc(=O)c1Cl)C2=O` showed a half-life in the data set “in vitro [1]” of less than 0.25 h.

With `O=C1c2ccccc2S(=O)(=O)N1COc1nc2ccccn2c(=O)c1Cl`, in the data set “in vitro [1]”, the half-life was less than 0.25 h.

`COc1cc(C(C)C)c2c(c1)S(=O)(=O)N(COC1=C(Cc3ccccc3)C(=O)OC1C)C2=O` (configuration not stated): the half-life in the data set “in vitro [1]” stood at 2.82 h; in the data set “in vitro [2]” it was 0.583 h. Taken in the same sequence, the figures for `COc1cc(C(C)C)c2c(c1)S(=O)(=O)N(COC(=O)c1c(Cl)cccc1Cl)C2=O` were 2.33 h and 1.22 h. Consider `COc1cc(C(C)C)c2c(c1)S(=O)(=O)N(COC1=C(c3ccccc3)C(=O)OC1)C2=O`, for which the half-life in “in vitro [1]” was 0.483 h. Same read-out and setting: the result for `COc1cc(C(C)C)c2c(c1)S(=O)(=O)N(COC1=CC(=O)OC1C)C2=O` (configuration not stated) reads less than 0.25 h; that for `COc1cc(C(C)C)c2c(c1)S(=O)(=O)N(COc1cc(C)oc(=O)c1)C2=O`, less than 0.25 h; that for `COc1cc(C(C)C)c2c(c1)S(=O)(=O)N(COC1=CC(=O)OC1)C2=O`, less than 0.25 h. Regarding `COc1cc(C(C)C)c2c(c1)S(=O)(=O)N(COC1=CC(=O)C1)C2=O`, the half-life in “in vitro [1]” was less than 0.25 h. Still for that read-out and setting: the result for `COc1cc(C(C)C)c2c(c1)S(=O)(=O)N(COC1=CC(=O)c3ccccc31)C2=O` reads less than 0.25 h; that for `COc1cc(C(C)C)c2c(c1)S(=O)(=O)N(COC1=C(Cl)C(=O)OC1)C2=O`, less than 0.25 h. As to `COc1cc(C(C)C)c2c(c1)S(=O)(=O)N(COc1nc3ccccn3c(=O)c1C)C2=O`, the half-life in “in vitro [1]” stood at 5.83 h; in the data set “in vitro [2]” it was 1.72 h.

`COc1cc(C(C)C)c2c(c1)S(=O)(=O)N(COc1nc3ccccn3c(=O)c1Cl)C2=O`: in the data set “in vitro [1]”, the half-life turned out to be 2.67 h.

`COc1cc(C(C)C)c2c(c1)S(=O)(=O)N(COC1=CC(=O)N(Cc3ccccc3)C1)C2=O` registered a half-life in the data set “in vitro [1]” of 0.233 h. The same measure, in the same setting: the result for `COc1cc(C(C)C)c2c(c1)S(=O)(=O)N(COc1cc(=O)n3c(n1)CCCC3)C2=O` reads 0.85 h; that for `CC(C)c1cccc2c1C(=O)N(COc1nc3ccccn3c(=O)c1Cl)S2(=O)=O`, 0.833 h; that for `COc1cc(C(C)C)c2c(c1)S(=O)(=O)N(COC1=C(C)C(=O)CCC1)C2=O`, 0.267 h.

In the data set “in vitro [1]”, `CCC(C)c1cccc2c1C(=O)N(COc1nc3ccccn3c(=O)c1Cl)S2(=O)=O` (configuration not stated) showed a half-life of 3.83 h.

Consider `COc1cc(C(C)C)c2c(c1)S(=O)(=O)N(COC1=C(Cc3ccccc3)C(=O)OC1)C2=O`, for which the half-life in “in vitro [1]” stood at 0.967 h; in the data set “in vitro [2]”, 1.25 h.
